From patent publication EP0195316A1, “Quinolonecarboxylic acid derivatives” (KYORIN PHARMACEUTICAL CO., LTD., priority 1985, dated 1986)
Converted amounts (≈) assume the structure as drawn. Like-named read-outs stand apart in the source and are kept apart here.

Assays:
MR-S. aureus = test: MIC, in vitro antibacterial activity (clinical isolates); format: cell-based; conditions: Staphylococcus aureus, No. of strains 46
S. epidermidis = test: as above; format: cell-based; conditions: Staphylococcus epidermidis, No. of strains 10
S. pyogenes = test: as above; format: cell-based; conditions: Streptococcus pyogenes
S. pneumoniae = test: as above; format: cell-based; conditions: Streptococcus pneumoniae
E. faecalis = test: as above; format: cell-based; conditions: Enterococcus faecalis, No. of strains 5
N. gonorrhoeae = test: as above; format: cell-based; conditions: Neisseria gonorrhoeae, No. of strains 16
N. meningitidis = test: as above; format: cell-based; conditions: Neisseria meningitidis, No. of strains 3
B. catarrhalis = test: as above; format: cell-based; conditions: Moraxella catarrhalis
H. influenzae = test: as above; format: cell-based; conditions: Haemophilus influenzae, No. of strains 26
E. coli = test: as above; format: cell-based; conditions: Escherichia coli, No. of strains 25
Protocol: (§1) Minimal inhibitory concentrations (MICs) were determined in accordance with the method recommended by Japan Society of Chemotherapy.

P. pneumoniae = test: as above; format: cell-based; conditions: No. of strains 25
Protocol: as §1

S. aureus = test: as above; format: cell-based; conditions: Staphylococcus aureus, No. of strains 21
Protocol: as §1

E. cloacae = test: as above; format: cell-based; conditions: Enterobacter cloacae
S. marcescens = test: as above; format: cell-based; conditions: Serratia marcescens, No. of strains 20
P. mirabilis = test: as above; format: cell-based; conditions: Proteus mirabilis, No. of strains 10
P. vulgaris = test: as above; format: cell-based; conditions: Proteus vulgaris, No. of strains 6
M. morganii = test: as above; format: cell-based; conditions: Morganella morganii, No. of strains 8
C. freundii = test: as above; format: cell-based; conditions: Citrobacter freundii, No. of strains 9
P. aeruginosa = test: as above; format: cell-based; conditions: Pseudomonas aeruginosa
P. maltophilia = test: as above; format: cell-based; conditions: Stenotrophomonas maltophilia, No. of strains 9
Acinetobacter sp. = test: as above; format: cell-based
Alcaligenes sp. = test: as above; format: cell-based; conditions: No. of strains 9
Campylobacter jejuni = test: as above; format: cell-based; conditions: No. of strains 20
Bacteroides sp. = test: as above; format: cell-based; conditions: No. of strains 17
E. coli ML 4707 = test: In vivo antibacterial activity against systemic infections in mice; conditions: Escherichia coli
Protocol: (§2) The infections were produced by intraperitoneal injection of suspension of the bacterial cells. The compounds were administered orally at an hour after the injection. Five male ICR mice were used for each dosage. […] The efficacy of the present compound are shown in Table 4 in comparison with those of the reference compounds.

P. aeruginosa IID 1210 = test: as above; conditions: Pseudomonas aeruginosa
Protocol: as §2

S. aureus Smith = test: as above; conditions: Staphylococcus aureus
Protocol: as §2

S. pneumoniae S-4288 = test: as above; conditions: Streptococcus pneumoniae
Protocol: as §2

Bacteroides fragilis 2 = test: Experimental local infection with anaerobic bacteria in granuloma pouches in rats; format: in vivo; conditions: pouch exudate, Mean ± S.D. (n=3)
Protocol: Under ether anesthesia, male Wistar rats (7 weeks old) were injected subcutaneously on the back with 20 ml of germ-free air (sterilized by membrane filtration, 0.45 µm pore size) by means of a syringe. Continuously, an inflammatory reaction was induced by injecting one ml of sterile croton oil solution (1 % in olive oil) into the formed air pouch. After 2 days, the air was removed. On the eighth day, 0.5 ml of Bacteroides fragilis 2 culture (10^6 CFU/ml) were injected into bore granuloma pouches. Each compound was administered orally or subcutaneously at 2 hours after infection. […] During experiment, intake of food and water was free. It was known that the activity of the existing quinolonecarboxylic acid compounds against obligate anaerobic bacteria was very weak. […] This property is also one of excellent characters of the present comound.

[1] = test system: Escherichia coli NIHJ JC-2; test: MIC, in vitro antibacterial activity (standard strains); format: cell-based; conditions: NIHJJC2
[2] = test system: Proteus vulgaris IFO 3167; test: as above; format: cell-based; conditions: Proteus vulgaris, IFO3167
K. pneumoniae 1-220S = test: as above; format: cell-based; conditions: Klebsiella pneumoniae, 1220S
Shigella sonnei IID 969 = test: as above; format: cell-based; conditions: IID969; Shigella sonnei IID 969, 10^6 cells/ml, Gram -
Protocol: as §1

Pst. microns UPI 5464-1 = test: as above; format: cell-based; conditions: Pst. microns UPI 5464-1, 10^6 cells/ml, Gram +
[3] = test system: Streptococcus pyogenes (S-8); test: as above; format: cell-based; conditions: Streptococcus pyogenes
S. pneumoniae IID 552 = test: as above; format: cell-based; conditions: Streptococcus pneumoniae, IID552
[4] = test system: Klebsiella pneumoniae KY(GN)6445; test: as above; format: cell-based; conditions: Klebsiella pneumoniae
[5] = test system: Alcaligenes faecalis 0104002; test: as above; format: cell-based; conditions: Alcaligenes faecalis, 0104002
[6] = test system: B. thetaiotaomicron (0661); test: as above; format: cell-based; conditions: Bacteroides thetaiotaomicron
F. varium KYA 8501 = test: as above; format: cell-based; conditions: Fusobacterium varium, KYA8501
C. perfringens KYA 13123 = test: microbe, parasite or virus in culture; format: cell-based; conditions: Clostridium perfringens, KYA13123
[7] = test system: nalidixic acid-resistant Salmonella typhimurium TA98 strain (nal^r); test: Mutagenicity, reverse mutation assay; conditions: 0.5 µg/plate, S9-mix +, positive control
Source text: As for antibacterial agents, assessment of mutagenicity using bacteria is somewhat difficult because of their activity on the test bacteria.

[8] = ML4707, E. coli ML 4707 systemic infection (i.p.), male ICR mice, oral administration an hour after infection, read-out: ED50
[9] = IID1210, P. aeruginosa IID 1210 systemic infection (i.p.), male ICR mice, oral administration an hour after infection, read-out: ED50
[10] = S4288, S. pneumoniae S-4288 systemic infection (i.p.), male ICR mice, oral administration an hour after infection, read-out: ED50

CC1COc2c(N3CCN(C)CC3)c(F)cc3c(=O)c(C(=O)O)cn1c23 (stereo not drawn) [OFLX, Ofloxacin]
MIC (MR-S. aureus): 1.56 mg/L (≈ 4.32 µM) | MIC (S. epidermidis): 0.39 mg/L (≈ 1.08 µM) | MIC (S. pyogenes; clinical isolates S. pyogenes, No. of strains 6, read-out: MIC): 1.56 mg/L (≈ 4.32 µM) | MIC (S. pneumoniae; clinical isolates S. pneumoniae, No. of strains 6, read-out: MIC): 3.13 mg/L (≈ 8.66 µM) | MIC (E. faecalis): 3.13 mg/L (≈ 8.66 µM) | MIC (N. gonorrhoeae): 0.05 mg/L (≈ 0.138 µM) | MIC (N. meningitidis): 0.025 mg/L (≈ 0.0692 µM) | MIC (B. catarrhalis; clinical isolates B. catarrhalis, No. of strains 21, read-out: MIC): 0.2 mg/L (≈ 0.553 µM) | MIC (H. influenzae): 0.1 mg/L (≈ 0.277 µM) | MIC (E. coli): 0.1 mg/L (≈ 0.277 µM) | MIC (P. pneumoniae): 0.78 mg/L (≈ 2.16 µM) | MIC (S. aureus): 0.39 mg/L (≈ 1.08 µM) | MIC (E. cloacae): 0.1 mg/L (≈ 0.277 µM) | MIC (S. marcescens): 0.2 mg/L (≈ 0.553 µM) | MIC (P. mirabilis): 0.2 mg/L (≈ 0.553 µM) | MIC (P. vulgaris): 0.1 mg/L (≈ 0.277 µM) | MIC (M. morganii): 0.1 mg/L (≈ 0.277 µM) | MIC (C. freundii): 0.39 mg/L (≈ 1.08 µM) | MIC (P. aeruginosa; clinical isolates P. aeruginosa, No. of strains 27, read-out: MIC): 3.13 mg/L (≈ 8.66 µM) | MIC (P. maltophilia): 6.25 mg/L (≈ 17.3 µM) | MIC (Acinetobacter sp.; clinical isolates Acinetobacter sp., No. of strains 13, read-out: MIC): 3.13 mg/L (≈ 8.66 µM) | MIC (Alcaligenes sp.): 6.25 mg/L (≈ 17.3 µM) | MIC (Campylobacter jejuni): 0.39 mg/L (≈ 1.08 µM) | MIC (Bacteroides sp.): 3.13 mg/L (≈ 8.66 µM) | ED50 (E. coli ML 4707; [8]): 2.1 mg/kg | ED50 (P. aeruginosa IID 1210; [9]): 12.1 mg/kg | ED50 (S. aureus Smith; S. aureus Smith systemic infection (i.p.), male ICR mice, oral administration an hour after infection, read-out: ED50): 17 mg/kg | ED50 (S. pneumoniae S-4288; [10]): > 100 mg/kg

Cc1ncc([N+](=O)[O-])n1CCO [MND, metronidazole]
Viable cells count (log) / ml (Bacteroides fragilis 2; 50 mg/kg, p.o., 6 hr): 5.2 ± 0.10 (log) / ml | Viable cells count (log) / ml (Bacteroides fragilis 2; 50 mg/kg, p.o., 24 hr): 5.7 ± 0.60 (log) / ml

O=C(O)c1cn(C2CC2)c2cc(N3CCNCC3)c(F)cc2c1=O [CFLX, Ciprofloxacin]
MIC ([1]; Escherichia coli NIHJ JC-2, 10^6 cells/ml, Gram -, read-out: MIC): ≤ 0.006 mg/L | MIC [2]: ≤ 0.006 mg/L | MIC (K. pneumoniae 1-220S): 0.05 mg/L (≈ 0.151 µM) | MIC (Shigella sonnei IID 969): ≤ 0.006 mg/L | MIC (Pst. microns UPI 5464-1): 0.2 mg/L | ED50 (E. coli ML 4707; ML4707, po): 1.5 mg/kg | ED50 (P. aeruginosa IID 1210; IID1210, po): 4.5 mg/kg | ED50 (S. aureus Smith; po): 31 mg/kg | ED50 (S. pneumoniae S-4288; S4288, po): > 100 mg/kg

CO[C@@]1(NC(=O)Cc2cccs2)C(=O)N2C(C(=O)O)=C(COC(N)=O)CS[C@@H]21 [CFX, cefoxitin]
Viable cells count (log) / ml (Bacteroides fragilis 2; 50 mg/kg, s.c., 6 hr): 3.9 ± 0.25 (log) / ml | Viable cells count (log) / ml (Bacteroides fragilis 2; 50 mg/kg, s.c., 24 hr): 6.3 ± 0.31 (log) / ml

CCC[C@@H]1C[C@@H](C(=O)N[C@@H]([C@H]2O[C@H](SC)[C@H](O)[C@@H](O)[C@H]2O)[C@H](C)Cl)N(C)C1 [CLDM, clindamycin]
Viable cells count (log) / ml (Bacteroides fragilis 2; 25 mg/kg, s.c., 6 hr): 4.6 ± 0.058 (log) / ml | Viable cells count (log) / ml (Bacteroides fragilis 2; 25 mg/kg, s.c., 24 hr): 6.4 ± 0.38 (log) / ml

O=C(O)c1cn(C2CC2)c2c(F)c(N3CCNCC3)c(F)cc2c1=O [Ref.1, 1-Cyclopropyl-6,8-difluoro-1,4-dihydro-4-oxo-7-(1-piperazinyl)-3-quinoline-carboxylic acid]
MIC [3]: 0.39 mg/L (≈ 1.12 µM) | MIC (S. pneumoniae IID 552): 0.78 mg/L (≈ 2.23 µM) | MIC ([1]; Escherichia coli): ≤ 0.006 mg/L | MIC [4]: 0.0125 mg/L (≈ 0.0358 µM) | MIC (K. pneumoniae 1-220S): 0.05 mg/L (≈ 0.143 µM) | MIC (Shigella sonnei IID 969): ≤ 0.006 mg/L | MIC [5]: 0.025 mg/L (≈ 0.0716 µM) | MIC [6]: 3.13 mg/L (≈ 8.96 µM) | MIC (F. varium KYA 8501): 3.13 mg/L (≈ 8.96 µM) | MIC (C. perfringens KYA 13123): 0.39 mg/L (≈ 1.12 µM)

CCn1cc(C(=O)O)c(=O)c2cc(F)c(N3CCNCC3)cc21 [NFLX, Norfloxacin]
MIC (MR-S. aureus): 25 mg/L (≈ 78.3 µM) | MIC (S. epidermidis): 0.78 mg/L (≈ 2.44 µM) | MIC (S. pyogenes): 1.56 mg/L (≈ 4.89 µM) | MIC (S. pneumoniae): 12.5 mg/L (≈ 39.1 µM) | MIC (E. faecalis): 6.25 mg/L (≈ 19.6 µM) | MIC (N. gonorrhoeae): 0.1 mg/L (≈ 0.313 µM) | MIC (N. meningitidis): 0.05 mg/L (≈ 0.157 µM) | MIC (B. catarrhalis): 1.56 mg/L (≈ 4.89 µM) | MIC (H. influenzae): 0.2 mg/L (≈ 0.626 µM) | MIC (E. coli): 0.1 mg/L (≈ 0.313 µM) | MIC (P. pneumoniae): 0.78 mg/L (≈ 2.44 µM) | MIC (S. aureus): 1.56 mg/L (≈ 4.89 µM) | MIC (E. cloacae): 0.1 mg/L (≈ 0.313 µM) | MIC (S. marcescens): 0.1 mg/L (≈ 0.313 µM) | MIC (P. mirabilis): 0.1 mg/L (≈ 0.313 µM) | MIC (P. vulgaris): 0.05 mg/L (≈ 0.157 µM) | MIC (M. morganii): 0.05 mg/L (≈ 0.157 µM) | MIC (C. freundii): 0.39 mg/L (≈ 1.22 µM) | MIC (P. aeruginosa): 1.56 mg/L (≈ 4.89 µM) | MIC (P. maltophilia): 25 mg/L (≈ 78.3 µM) | MIC (Acinetobacter sp.; Acinetobacter): 12.5 mg/L (≈ 39.1 µM) | MIC (Alcaligenes sp.): 100 mg/L (≈ 313 µM) | MIC (Campylobacter jejuni): 0.78 mg/L (≈ 2.44 µM) | MIC (Bacteroides sp.): 50 mg/L (≈ 157 µM) | ED50 (E. coli ML 4707; [8]): 8.9 mg/kg | ED50 (P. aeruginosa IID 1210; [9]): 18.9 mg/kg | ED50 (S. pneumoniae S-4288; [10]): > 100 mg/kg

Nc1ccc2cc3ccccc3cc2c1 [Example 2AA, 2-Aminoanthracene]
His^+ revertants per plate [7]: 277
